# Measured values from patent US20240148701A1, “WOULD HEALING METHODS” (The University of Sydney, priority 2021, published 2024).
# Assays:
# HUVECs = experiment: Cell migration by scratch assay in HUVECs (CL 316,243); assay type: cell-based, human
# [1] = tested on: endothelial colony forming cells (ECFC); experiment: Tubule formation in patient-derived endothelial colony forming cells; assay type: cell-based, human
# Procedure: Human umbilical vein endothelial cells (HUVECs; Lonza C2519AS, pooled source, Australia) were grown using standard cell culture conditions in endothelial cell growth medium (EGM Plus®, containing 2% fetal bovine serum, Lonza, Australia). All cells were regularly confirmed to be mycoplasma negative. Two different pooled source cell lines were used in experiments and all were used within passages 2-4. Human adult dermal microvascular endothelial cells were also obtained from Lonza (CC-2543, Lonza Australia) and cultured as above but using endothelial growth medium 2-MV bulletkit. Endothelial colony forming cells (ECFCs) were derived from the peripheral blood of participants in the BioHEART study. This registered study (ACTRN12618001322224) complies with the Declaration of Helsinki and the study protocol and design has been approved by the Northern Sydney Local Health District Human Research Ethics Committee (HREC/17/HAWKE/343). […]
# Once they were ˜70% confluent, cells were re-suspended in diluted EGM Plus® (1:3) and plated on reduced-growth factor extracellular matrix (15 mg/ml, Cultrex, Trevigen, USA) at a density of 1.5×10^4 cells/cm^2. […] Cells were incubated in an EVOS FL Auto Imaging system for 16 hours and tubule formation recorded every hour. Optimal tube formation occurred at the 8-hour timepoint; tubule number at this point was quantified manually using NIH Image J software. […]
# C57BL6/J mice [2] = experiment: Murine hind limb ischemia model, laser Doppler perfusion (non-diabetic mice); assay type: in vivo, mouse
# Procedure: (§1) Male C57BL6/J mice 8-10 weeks of age were obtained from Australian BioResources (Moss Vale, NSW) with 12 hour light/dark cycles and free access to water and mouse chow (Specialty Feeds, Australia). Mice were housed in groups of 2-5 in standard cages within a Physical Containment Level 2 laboratory. For in vivo angiogenesis 16 mice underwent the femoral vascular ligation model. Mice were anaesthetized with 1.5-2% isoflurane vaporized in oxygen and constant body temperature was maintained. All mice received pre-operative and 24-hour post-operative analgesia (carprofen, 5 mg/kg s.c). A small incision (˜15 mm) was made in the hind limb skin directly over the femoral vasculature. A portion of the femoral artery and vein, distal to the origin of the profunda femoris artery and proximal to the saphenous artery, were isolated and two ligations were performed using 6-0 silk sutures. The femoral artery and vein were then excised between the ligation sites 27. An osmotic mini-pump (model 1002 [for 14 day protocols] or model 1004 [for 28 day protocols], Alzet, USA) containing either CL 316,243 (1 mg/kg/day) or vehicle (normal saline) was then implanted via the femoral skin opening and tunneled around and positioned in the dorsal flank. The mice were randomized 1:1 to treatment protocols prior to undergoing surgery. The skin was closed with non-continuous suture (Prolene 6-0, Johnson and Johnson Medical, Australia). Hind limb blood flow was assessed prior to ligation (baseline) and immediately after undergoing hind limb ischemia, with subsequent imaging at day 3, 7, 10, 14, 21 and 28 post hind limb ischemia. Some experiments were stopped at 14 days for assessment of hind limb histology and biochemistry. Software was used to analyze the perfusion flux (Moor, UK) and investigators were blinded to the treatment groups during the period of analysis. The rate of reperfusion in the hind limb was calculated as a ratio of blood flow in the ischemic versus non-ischemic contralateral limb.
# C57BL6/J mice [3] = experiment: Hind limb ischemia in type 2 diabetes model, laser Doppler perfusion; assay type: in vivo, mouse; conditions: type 2 diabetes mice
# Procedure: as §1, with “An osmotic mini-pump (model 1002 [for 14 day protocols] or model 1004 [for 28 day protocols], Alzet, USA) containing either CL 316,243 (1 mg/kg/day) or vehicle (normal saline) was then implanted via the femoral skin opening and tunneled around and positioned in the dorsal flank. The mice were randomized 1:1 to treatment protocols prior to undergoing surgery. The skin was closed with non-continuous suture (Prolene 6-0, Johnson and Johnson Medical, Australia).” left out, “Some experiments were stopped at 14 days for assessment of hind limb histology and biochemistry. Software was used to analyze the perfusion flux (Moor, UK) and investigators were blinded to the treatment groups during the period of analysis.” left out, “limb. […]” for “limb.”
structure (smiles),measurement,setting,value
"C[C@H](Cc1ccc2c(c1)OC(C(=O)[O-])(C(=O)[O-])O2)NC[C@H](O)c1cccc(Cl)c1.[Na+].[Na+] [CL 316,243]",closure of denuded zone,HUVECs; by 24 hours at the higher concentrations,> 90%
same,migration of HUVECs into the denuded zone,"HUVECs; scratch assay over 24 hours, 1-1000 ng/ml, vs vehicle control",significantly increased migration
same,angiogenesis (tubule formation) in ECFCs,"[1]; ECFCs from patients with significant coronary artery disease, 100 ng/ml",effectively stimulate angiogenesis
same,angiogenesis in ECFCs,[1]; cells from relatively healthy participants,did not occur
same,perfusion in the ischemic limbs,"C57BL6/J mice [2]; 1 mg/kg/day subcutaneous infusion, 10-14 days following ischemic injury, vs vehicle",significantly increased perfusion
same,perfusion in the non-ischemic limb,C57BL6/J mice [2]; 1 mg/kg/day systemic infusion,increased perfusion
same,ischemic non-ischemic ratio of perfusion,"C57BL6/J mice [2]; 14 days of hind limb ischemia, vs vehicle",no differences
same,reperfusion post-ischemia,C57BL6/J mice [3],augmented reperfusion
